This is an account of results in PubChem BioAssay (NCI).

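Five concentrations, 48 hours, 96-well plates. GI50 is the concentration that inhibits growth by half. TGI denotes the concentration required for complete inhibition of growth.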 Bounds are passed on as bounds.

Among the test systems are HCC-2998 colon; HCT-15 colon; HS 578T breast; MCF7 breast; MDA-MB-231 breast; OVCAR-5 ovarian; SF-295 CNS; SK-MEL-28 melanoma; SK-MEL-5 melanoma; TK-10 renal.
What all share (experiment): NCI-60 cell line screen, 48 h

As for `COC(=O)c1c2c(c(C)[n+]([O-])c1C)C(=O)C(NCc1ccc(F)cc1)=CC2=O`, the GI50 in the experiment with HCC-2998 colon is 1.79 µM; in the experiment with HCT-15 colon, 1.23 µM; with HS 578T breast, 2.47 µM; with MCF7 breast it was 1.11 µM; in the experiment on MDA-MB-231 breast, 1.46 µM; in the experiment with OVCAR-5 ovarian, 1.8 µM. The GI50 was 1.42 µM with SF-295 CNS, 3.2 µM in the experiment on SK-MEL-28 melanoma, 0.3 µM in the experiment on SK-MEL-5 melanoma and 3.32 µM with TK-10 renal. In addition, the TGI in the experiment on HCC-2998 colon stood at 4.57 µM; with HCT-15 colon, 3 µM; in the experiment with HS 578T breast, 8.03 µM; with MCF7 breast it was 2.86 µM; with MDA-MB-231 breast it was 4.36 µM; in the experiment on OVCAR-5 ovarian, 3.59 µM. The TGI in the experiment on SF-295 CNS was 3 µM; in the experiment on SK-MEL-28 melanoma it was 15.6 µM; in the experiment on SK-MEL-5 melanoma it was 1 µM; in the experiment on TK-10 renal, 36.7 µM.
Consider `O=C(NNc1ccccc1)c1ccc(Cl)c(Cl)c1`, for which the TGI was greater than 40.9 µM with HCC-2998 colon; greater than 100 µM in the experiment with HCT-15 colon; greater than 100 µM with HS 578T breast; greater than 100 µM in the experiment on MCF7 breast; greater than 100 µM in the experiment with MDA-MB-231 breast; greater than 100 µM in the experiment with OVCAR-5 ovarian. Further, the TGI with SF-295 CNS was greater than 86.5 µM; with SK-MEL-28 melanoma, greater than 100 µM; with SK-MEL-5 melanoma it was 41.6 µM; in the experiment on TK-10 renal, greater than 100 µM.
For the compound `O=C(CSC(c1ccccc1)c1ccccc1)N/N=C/c1ccccc1Cl`, the GI50 was 6.9 µM with HCC-2998 colon; 8.36 µM with HCT-15 colon; 9.64 µM with HS 578T breast; 11.2 µM in the experiment on MCF7 breast; 1.46 µM in the experiment with MDA-MB-231 breast; 10.7 µM in the experiment on OVCAR-5 ovarian. The GI50 was 15.9 µM with SF-295 CNS, 46.1 µM in the experiment with SK-MEL-28 melanoma, 21 µM in the experiment with SK-MEL-5 melanoma and 14.5 µM in the experiment with TK-10 renal. Also, the TGI in the experiment on HCC-2998 colon was greater than 75 µM; in the experiment on HCT-15 colon, greater than 51 µM; in the experiment on HS 578T breast it was greater than 56.9 µM; with MCF7 breast, greater than 52.8 µM; in the experiment on MDA-MB-231 breast it was 11.5 µM; in the experiment with OVCAR-5 ovarian, greater than 73.2 µM. Besides, the TGI in the experiment with SF-295 CNS was greater than 68.4 µM; with SK-MEL-28 melanoma it was greater than 100 µM; in the experiment on SK-MEL-5 melanoma, 47.2 µM; in the experiment with TK-10 renal it was 65.3 µM.
Turning to `CC1=NN(c2cccc(Cl)c2)C(=O)/C1=C\C=C\c1ccccc1`, the GI50 in the experiment on HCC-2998 colon was 1.91 µM; with HCT-15 colon it was 2.27 µM; in the experiment with HS 578T breast it was 1.65 µM; in the experiment with MCF7 breast, 1.12 µM; in the experiment with MDA-MB-231 breast, 2.27 µM; with OVCAR-5 ovarian it was 2.81 µM. Moreover, the GI50 in the experiment on SF-295 CNS was 3.17 µM; in the experiment on SK-MEL-28 melanoma, 2.09 µM; in the experiment with SK-MEL-5 melanoma, 2.27 µM; in the experiment on TK-10 renal, 3.17 µM. For the same compound, the TGI came to 3.45 µM in the experiment with HCC-2998 colon; 5.68 µM with HCT-15 colon; 9.61 µM in the experiment with HS 578T breast; 18.8 µM in the experiment on MCF7 breast; 7.47 µM in the experiment on MDA-MB-231 breast; 7.83 µM in the experiment on OVCAR-5 ovarian. The TGI with SF-295 CNS came out at 67.8 µM; with SK-MEL-28 melanoma it was 4.3 µM; in the experiment with SK-MEL-5 melanoma, 5.76 µM; with TK-10 renal it was 9.05 µM.
For the compound `C[C@H]1COCCN1c1nc(-c2cnc(N)cc2C(F)F)nc(N2CCOCC2)n1`, the GI50 was 0.186 µM in the experiment with HCC-2998 colon; 0.183 µM in the experiment on HCT-15 colon; 0.1 µM in the experiment with HS 578T breast; 0.0487 µM in the experiment with MCF7 breast; 0.177 µM in the experiment on MDA-MB-231 breast; 0.188 µM in the experiment on OVCAR-5 ovarian. Also, the GI50 was 0.119 µM in the experiment on SF-295 CNS, 0.115 µM in the experiment on SK-MEL-28 melanoma, 0.15 µM in the experiment with SK-MEL-5 melanoma and 0.0866 µM in the experiment on TK-10 renal. For the same compound, the TGI in the experiment on HCC-2998 colon is 15.1 µM; in the experiment with HCT-15 colon it was greater than 100 µM; in the experiment on HS 578T breast, 0.551 µM; in the experiment with MCF7 breast, greater than 100 µM; with MDA-MB-231 breast it was 48.5 µM; with OVCAR-5 ovarian, greater than 100 µM. Also, the TGI with SF-295 CNS amounted to 0.645 µM; in the experiment on SK-MEL-28 melanoma, 0.994 µM; in the experiment with SK-MEL-5 melanoma, 0.651 µM; with TK-10 renal, 0.815 µM.
In the case of `CC1=CC(C)(C)Nc2ccc(Cc3ccc4c(c3)C(C)=CC(C)(C)N4)cc21`, the GI50 in the experiment with HCC-2998 colon was 20.6 µM; with HCT-15 colon, 13.8 µM; in the experiment with HS 578T breast, 8.14 µM; with MCF7 breast, 5.23 µM; with MDA-MB-231 breast, 15.7 µM; with OVCAR-5 ovarian, 52.3 µM. The GI50 in the experiment with SF-295 CNS was 9.78 µM; in the experiment with SK-MEL-28 melanoma, 20.3 µM; in the experiment on SK-MEL-5 melanoma, 9.05 µM; in the experiment on TK-10 renal, 16.8 µM. Moreover, the TGI was greater than 100 µM with HCC-2998 colon; 72.6 µM in the experiment on HCT-15 colon; 47.4 µM in the experiment on HS 578T breast; 26.3 µM in the experiment on MCF7 breast; 64.2 µM with MDA-MB-231 breast; greater than 100 µM in the experiment on OVCAR-5 ovarian. Also, the TGI is greater than 100 µM in the experiment on SF-295 CNS, greater than 100 µM with SK-MEL-28 melanoma, 22 µM with SK-MEL-5 melanoma and 92.8 µM with TK-10 renal.
In the case of `Cc1ccnc2c(NC(C)CCCN)cc(O)c(O)c12` (stereo not given), the GI50 in the experiment with HCC-2998 colon is 7.83 µM; in the experiment on HCT-15 colon, 27 µM; with HS 578T breast, 6.26 µM; with MCF7 breast it was 1.97 µM; with MDA-MB-231 breast, 16 µM; in the experiment on OVCAR-5 ovarian it was 13.1 µM. For the same compound, the GI50 in the experiment on SF-295 CNS is 35.2 µM; with SK-MEL-28 melanoma, 62.5 µM; in the experiment with SK-MEL-5 melanoma, 17.6 µM; with TK-10 renal, 47.7 µM. Further, the TGI with HCC-2998 colon was 32 µM; in the experiment with HCT-15 colon it was greater than 100 µM; in the experiment on HS 578T breast, 43.1 µM; with MCF7 breast, 5.9 µM; with MDA-MB-231 breast, 74 µM; in the experiment on OVCAR-5 ovarian it was 40.7 µM. Further, the TGI with SF-295 CNS is greater than 100 µM; in the experiment with SK-MEL-28 melanoma it was greater than 100 µM; with SK-MEL-5 melanoma it was 42.1 µM; in the experiment on TK-10 renal, greater than 100 µM.
For `Cn1cc(C2=C(c3cc[nH]c3)C(=O)NC2=O)c2ccccc21`, the GI50 with HCC-2998 colon is greater than 25 µM; in the experiment on HCT-15 colon it was greater than 25 µM; in the experiment on HS 578T breast, 9.97 µM; in the experiment on MCF7 breast, 11.8 µM; in the experiment with MDA-MB-231 breast it was greater than 25 µM; in the experiment on OVCAR-5 ovarian it was greater than 25 µM. Also, the GI50 with SF-295 CNS, in the experiment with SK-MEL-28 melanoma, in the experiment on SK-MEL-5 melanoma and with TK-10 renal was greater than 25 µM each time. Moreover, the TGI in the experiment on HCC-2998 colon, in the experiment on HCT-15 colon, in the experiment on HS 578T breast, in the experiment on MCF7 breast, with MDA-MB-231 breast and in the experiment with OVCAR-5 ovarian was greater than 25 µM in each case. Also, the TGI in the experiment on SF-295 CNS, in the experiment on SK-MEL-28 melanoma, in the experiment on SK-MEL-5 melanoma and in the experiment with TK-10 renal was greater than 25 µM in each case.
In the case of `C[C@@]1(C(=O)O)CCC[C@]2(C)C1CC[C@]13C[C@@](O)(CO)[C@](O)(CC[C@]12O)C3` (stereo not given in full), the GI50 in the experiment on HCC-2998 colon, in the experiment on HCT-15 colon, in the experiment on HS 578T breast, in the experiment with MCF7 breast, in the experiment with MDA-MB-231 breast and in the experiment on OVCAR-5 ovarian was greater than 100 µM throughout. Also, the GI50 in the experiment on SF-295 CNS, with SK-MEL-28 melanoma, with SK-MEL-5 melanoma and in the experiment on TK-10 renal was greater than 100 µM each time. Further, the TGI in the experiment with HCC-2998 colon, with HCT-15 colon, with HS 578T breast, in the experiment with MCF7 breast, in the experiment with MDA-MB-231 breast and in the experiment on OVCAR-5 ovarian was greater than 100 µM throughout. Besides, the TGI in the experiment on SF-295 CNS, in the experiment on SK-MEL-28 melanoma, in the experiment on SK-MEL-5 melanoma and in the experiment with TK-10 renal was greater than 100 µM each time.
On to `Cc1cc(N(CCC#N)CCC#N)ccc1/C=C(\NC(=O)/C=C/c1ccccc1)C(=O)Nc1ccc(Cl)cc1`, for which the TGI with HCC-2998 colon is greater than 58.7 µM; in the experiment with HCT-15 colon, greater than 100 µM; with HS 578T breast it was greater than 100 µM; in the experiment on MCF7 breast it was greater than 100 µM; with MDA-MB-231 breast it was greater than 100 µM; in the experiment on OVCAR-5 ovarian it was greater than 100 µM. Further, the TGI in the experiment with SF-295 CNS is greater than 100 µM; in the experiment on SK-MEL-28 melanoma, greater than 100 µM; in the experiment with SK-MEL-5 melanoma it was 5.95 µM; in the experiment on TK-10 renal it was greater than 100 µM.
On to `Cc1nn(Cc2ccccc2)cc1C(=O)Nc1sc2c(c1C(N)=O)CCC(=O)C2`, for which the GI50 in the experiment with HCC-2998 colon is 2.56 µM; in the experiment on HCT-15 colon, 1.63 µM; in the experiment with HS 578T breast, 2.51 µM; in the experiment with MCF7 breast, 2.48 µM; in the experiment on MDA-MB-231 breast, 2 µM; in the experiment with OVCAR-5 ovarian, 1.92 µM. In addition, the GI50 is 2.68 µM with SF-295 CNS, 2.07 µM in the experiment with SK-MEL-28 melanoma, 1.83 µM with SK-MEL-5 melanoma and 3.33 µM in the experiment with TK-10 renal. For the same compound, the TGI in the experiment on HCC-2998 colon stood at 7.41 µM; in the experiment with HCT-15 colon, 3.72 µM; in the experiment with HS 578T breast, 9.71 µM; in the experiment with MCF7 breast, 7.59 µM; in the experiment with MDA-MB-231 breast it was 4.86 µM; in the experiment on OVCAR-5 ovarian, 4.3 µM. Further, the TGI in the experiment with SF-295 CNS is 8.07 µM; in the experiment with SK-MEL-28 melanoma it was 4.29 µM; with SK-MEL-5 melanoma, 3.33 µM; in the experiment on TK-10 renal it was 26.4 µM.
